Experimental data reported in US20110251379A1, “COMPOUNDS USEFUL FOR TREATING NEURODEGENERATIVE DISORDERS” (Satori Pharmaceuticals, Inc., priority 2010, published 2011).

Tested on: amyloid-beta (1-42) peptide
Assay: ELISA assay of amyloid-beta (1-42) in conditioned media of 2B7 cells
Assay type: cell-based
Details: Aβ-42, 100 umol/L; read-out: % Inhibition (range)
Method in brief: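 2B7 cells were treated with compounds for 5 hours at 37° C in media with 1% DMSO. Conditioned media, diluted 1:2 in blocking buffer, went into a sandwich ELISA with 6E10 capture and an HRP-labelled detection antibody, read by TMB at 450 nm. Values came from an Aβ peptide standard curve.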

Row | SMILES | inhibition at 100 µM [%]
1 | C[C@@H]1C[C@H]([C@@H]2OC(=O)OC2(C)C)OC2C1[C@@]1(C)CC[C@@]34C[C@@]35CC[C@H](O)C(C)(C)[C@@H]5CC[C@H]4[C@]1(C)[C@H]2O (stereo partly drawn) | 25 to 75

Same assay, conditions: Aβ-42, 2B7 cells, 5 hours; read-out: IC50 range

Row | SMILES | IC50 [µM]
2 | CCC(=O)OC(C1CC(C)C2C(O1)C(O)C1(C)C3CCC4C(C)(C)C(OC5OCC(O)C(O)C5O)CCC45CC35CCC21C)C(C)(C)O (stereo not drawn) | ≤ 1
3 | CNCC1CC(C)C2C(O1)C(O)C1(C)C3CCC4C(C)(C)C(OC5OCC(O)C(O)C5O)CCC45CC35CCC21C (stereo not drawn) | > 10
4 | CC(=O)OC(C1CC(C)C2C(O1)C(O)C1(C)C3CCC4C(C)(CCC(O)C4(C)C)C3=CCC21C)C(C)(C)O (stereo not drawn) | ≤ 1
5 | CC(=O)OC(C1CC(C)C2C(O1)C(OC(N)=O)C1(C)C3CCC4C(C)(C)C(OC(N)=O)CCC45CC35CCC21C)C(C)(C)O (stereo not drawn) | > 10
6 | CC(=O)OC(C1CC(C)C2C(O1)C(OC(=O)C(F)(F)F)C1(C)C3CCC4C(C)(C)C(OC(=O)C(F)(F)F)CCC45CC35CCC21C)C(C)(C)O (stereo not drawn) | ≤ 1
7 | CC(=O)OC(C1CC(C)C2C(O1)C(OC(=O)C(F)(F)F)C1(C)C3CCC4C(C)(C)C(O)CCC45CC35CCC21C)C(C)(C)O (stereo not drawn) | ≤ 1
8 | CC(=O)OC(C1CC(C)C2C(O1)C(OC(N)=O)C1(C)C3CCC4C(C)(C)C(O)CCC45CC35CCC21C)C(C)(C)O (stereo not drawn) | > 10
9 | CC(=O)OC(C1CC(C)C2C(O1)C(O)C1(C)C3CCC4C(C)(C)C(OC(=O)C5CCN5)CCC45CC35CCC21C)C(C)(C)O (stereo not drawn) | ≤ 1
10 | CCN1CCOC(OC2CCC34CC35CCC3(C)C6C(C)CC(C(OC(C)=O)C(C)(C)O)OC6C(OC(C)=O)C3(C)C5CCC4C2(C)C)C1 (stereo not drawn) | > 10
11 | CC1CC(CNCc2ccccc2)OC2C1C1(C)CCC34CC35CCC(O)C(C)(C)C5CCC4C1(C)C2O (stereo not drawn) | > 10
12 | CC1CC(CNC(C)(C)C)OC2C1C1(C)CCC34CC35CCC(O)C(C)(C)C5CCC4C1(C)C2O (stereo not drawn) | > 10
13 | CC1CC(CN(C)C)OC2C1C1(C)CCC34CC35CCC(O)C(C)(C)C5CCC4C1(C)C2O (stereo not drawn) | > 10
14 | CC1CC(CNCC(F)(F)F)OC2C1C1(C)CCC34CC35CCC(O)C(C)(C)C5CCC4C1(C)C2O (stereo not drawn) | > 10
15 | C=C(C)C(OC(C)=O)C1CC(C)C2C(O1)C(O)C1(C)C3CCC4C(C)(C)C(OC5CN(CC(=O)N(C)C)CCO5)CCC45CC35CCC21C (stereo not drawn) | 1 to 10
16 | CC(=O)N(CC1CC(C)C2C(O1)C(O)C1(C)C3CCC4C(C)(C)C(O)CCC45CC35CCC21C)C(C)(C)C (stereo not drawn) | < 10
17 | CC(=O)N(C)CC1CC(C)C2C(O1)C(O)C1(C)C3CCC4C(C)(C)C(O)CCC45CC35CCC21C (stereo not drawn) | > 10
18 | CC(=O)N(CC1CC(C)C2C(O1)C(O)C1(C)C3CCC4C(C)(C)C(O)CCC45CC35CCC21C)CC(F)(F)F (stereo not drawn) | > 10
19 | COC(=O)C1CC(C)C2C(O1)C(O)C1(C)C3CCC4C(C)(C)C(O)CCC45CC35CCC21C (stereo not drawn) | > 10
20 | CC1CC(C(=O)NC2CCC2)OC2C1C1(C)CCC34CC35CCC(O)C(C)(C)C5CCC4C1(C)C2O (stereo not drawn) | > 10
21 | CC1CC(C(=O)NCc2ccccc2)OC2C1C1(C)CCC34CC35CCC(O)C(C)(C)C5CCC4C1(C)C2O (stereo not drawn) | > 10
22 | CC1CC(CN)OC2C1C1(C)CCC34CC35CCC(O)C(C)(C)C5CCC4C1(C)C2O (stereo not drawn) | > 10

Row | SMILES | IC50 [µM]
23 | CC1CC(CN(CC(C)(C)O)S(C)(=O)=O)OC2C1C1(C)CCC34CC35CCC(O)C(C)(C)C5CCC4C1(C)C2O (stereo not drawn) | > 10
24 | CC(=O)N(Cc1ccccc1)C(C(=O)NCc1ccccc1)C1CC(C)C2C(O1)C(O)C1(C)C3CCC4C(C)(C)C(O)CCC45CC35CCC21C (stereo not drawn) | > 10
25 | CC1CC(c2nnco2)OC2C1C1(C)CCC34CC35CCC(O)C(C)(C)C5CCC4C1(C)C2O (stereo not drawn) | > 10
26 | CC1CC(CN2CCCCC2=O)OC2C1C1(C)CCC34CC35CCC(O)C(C)(C)C5CCC4C1(C)C2O (stereo not drawn) | > 10
27 | CC(=O)N(C)C(C(=O)NCc1ccccc1)C1CC(C)C2C(O1)C(O)C1(C)C3CCC4C(C)(C)C(O)CCC45CC35CCC21C (stereo not drawn) | > 10
28 | CC(=O)N(CC1CC(C)C2C(O1)C(O)C1(C)C3CCC4C(C)(C)C(O)CCC45CC35CCC21C)C1CCC1 (stereo not drawn) | > 10
29 | CC1CC(CN2CCCC2=O)OC2C1C1(C)CCC34CC35CCC(O)C(C)(C)C5CCC4C1(C)C2O (stereo not drawn) | > 10
30 | CC1CC(CN2C(=O)OCC2(C)C)OC2C1C1(C)CCC34CC35CCC(O)C(C)(C)C5CCC4C1(C)C2O (stereo not drawn) | > 10
31 | CC(=O)N(CC1CC(C)C2C(O1)C(O)C1(C)C3CCC4C(C)(C)C(OC(=O)c5cccnc5)CCC45CC35CCC21C)C1CCC1 (stereo not drawn) | > 10
32 | CC(=O)N(CC1CC(C)C2C(O1)C(O)C1(C)C3CCC4C(C)(C)C(OC(=O)c5cccnc5)CCC45CC35CCC21C)C(C)(C)C (stereo not drawn) | > 10
33 | CC1CC(CN(C)C(=O)C(C)(C)C)OC2C1C1(C)CCC34CC35CCC(O)C(C)(C)C5CCC4C1(C)C2O (stereo not drawn) | > 10
34 | CC1CC(CN(C)C(=O)C(C)(C)C)OC2C1C1(C)CCC34CC35CCC(OC(=O)c3cccnc3)C(C)(C)C5CCC4C1(C)C2O (stereo not drawn) | > 10
35 | CC(=O)N(Cc1ccccc1)CC1CC(C)C2C(O1)C(O)C1(C)C3CCC4C(C)(C)C(OC(=O)c5cccnc5)CCC45CC35CCC21C (stereo not drawn) | 1 to 10
36 | CC(=O)N(CC1CC(C)C2C(O1)C(O)C1(C)C3CCC4C(C)(C)C(O)CCC45CC35CCC21C)CC(C)(C)C (stereo not drawn) | 1 to 10
37 | COC(=O)N(CC1CC(C)C2C(O1)C(O)C1(C)C3CCC4C(C)(C)C(O)CCC45CC35CCC21C)C(C)(C)C (stereo not drawn) | > 10
38 | CC(C)NC(=O)N(Cc1ccccc1)CC1CC(C)C2C(O1)C(O)C1(C)C3CCC4C(C)(C)C(O)CCC45CC35CCC21C (stereo not drawn) | > 10
39 | CC(=O)N(Cc1ccccc1F)CC1CC(C)C2C(O1)C(O)C1(C)C3CCC4C(C)(C)C(O)CCC45CC35CCC21C (stereo not drawn) | 1 to 10
40 | CC(=O)N(Cc1cccc(F)c1)CC1CC(C)C2C(O1)C(O)C1(C)C3CCC4C(C)(C)C(O)CCC45CC35CCC21C (stereo not drawn) | ≤ 1
41 | CC(=O)N(Cc1ccc(F)cc1)CC1CC(C)C2C(O1)C(O)C1(C)C3CCC4C(C)(C)C(O)CCC45CC35CCC21C (stereo not drawn) | 1 to 10
42 | CC(=O)N(Cc1cccnc1)CC1CC(C)C2C(O1)C(O)C1(C)C3CCC4C(C)(C)C(O)CCC45CC35CCC21C (stereo not drawn) | > 10
43 | CC(=O)N(Cc1ccncc1)CC1CC(C)C2C(O1)C(O)C1(C)C3CCC4C(C)(C)C(O)CCC45CC35CCC21C (stereo not drawn) | > 10

Row | SMILES | IC50 [µM]
44 | CC(=O)N(Cc1cc(F)cc(F)c1)CC1CC(C)C2C(O1)C(O)C1(C)C3CCC4C(C)(C)C(OC(=O)c5cccnc5)CCC45CC35CCC21C (stereo not drawn) | 1 to 10
45 | CC(=O)N(Cc1cc(F)c(F)c(F)c1)CC1CC(C)C2C(O1)C(O)C1(C)C3CCC4C(C)(C)C(O)CCC45CC35CCC21C (stereo not drawn) | 1 to 10
46 | CC(=O)N(Cc1cc(F)cc(F)c1)CC1CC(C)C2C(O1)C(O)C1(C)C3CCC4C(C)(C)C(OC(=O)c5ccccn5)CCC45CC35CCC21C (stereo not drawn) | 1 to 10
47 | CC1CC(CN(Cc2ccccc2)C(=O)N(C)C)OC2C1C1(C)CCC34CC35CCC(O)C(C)(C)C5CCC4C1(C)C2O (stereo not drawn) | > 10
48 | CC(=O)N(CC1CC(C)C2C(O1)C(O)C1(C)C3CCC4C(C)(C)C(O)CCC45CC35CCC21C)C(C)c1ccc(F)cc1 (stereo not drawn) | 1 to 10
49 | CC(=O)N(Cc1cc(F)cc(F)c1)CC1CC(C)C2C(O1)C(O)C1(C)C3CCC4C(C)(C)C(OC(=O)c5ccncc5)CCC45CC35CCC21C (stereo not drawn) | > 10
50 | CC(=O)N(Cc1cc(F)cc(F)c1)CC1CC(C)C2C(O1)C(O)C1(C)C3CCC4C(C)(C)C(OC(=O)C5CN(C(=O)OC(C)(C)C)C5)CCC45CC35CCC21C (stereo not drawn) | > 10
51 | CC1CC(C(OC(=O)C(C)(C)C)C(C)(C)O)OC2C1C1(C)CCC34CC35CCC(O)C(C)(C)C5CCC4C1(C)C2O (stereo not drawn) | > 1
52 | CC1CC(C2OC(=O)OC2(C)C)OC2C1C1(C)CCC34CC35CCC(O)C(C)(C)C5CCC4C1(C)C2O (stereo not drawn) | > 10
53 | CC(=O)N(Cc1cc(F)cc(F)c1)CC1CC(C)C2C(O1)C(O)C1(C)C3CCC4C(C)(C)C(OC(=O)CN5CCOCC5)CCC45CC35CCC21C (stereo not drawn) | > 10
54 | CC(=O)N(Cc1cc(F)cc(F)c1)CC1CC(C)C2C(O1)C(O)C1(C)C3CCC4C(C)(C)C(OC(=O)Cc5cccnc5)CCC45CC35CCC21C (stereo not drawn) | > 10
55 | CC(=O)OC(C1CC(C)C2C(O1)C(O)C1(C)C3CCC4C(C)(C)C(OC(=O)C5(C)COC5)CCC45CC35CCC21C)C(C)(C)O (stereo not drawn) | ≤ 1
56 | CC1CC(C(O)C(C)(C)O)OC2C1C1(C)CCC34CC35CCC(OC3CN(C(=O)c6ccc(F)cc6)CCO3)C(C)(C)C5CCC4C1(C)C2O (stereo not drawn) | 1 to 10
57 | CC1CC(C(O)C(C)(C)O)OC2C1C1(C)CCC34CC35CCC(OC3CN(C(=O)c6ccccn6)CCO3)C(C)(C)C5CCC4C1(C)C2O (stereo not drawn) | > 10
58 | CC1CC(C(O)C(C)(C)O)OC2C1C1(C)CCC34CC35CCC(OC3CN(C(=O)CN(C)C)CCO3)C(C)(C)C5CCC4C1(C)C2O (stereo not drawn) | 1 to 10
59 | CC1CC(C(O)C(C)(C)O)OC2C1C1(C)CCC34CC35CCC(OC3CN(C(=O)CN6CCCC6)CCO3)C(C)(C)C5CCC4C1(C)C2O (stereo not drawn) | 1 to 10
60 | CC1CC(C(O)C(C)(C)O)OC2C1C1(C)CCC34CC35CCC(OC3CN(C(=O)C6CCN(C)CC6)CCO3)C(C)(C)C5CCC4C1(C)C2O (stereo not drawn) | 1 to 10
61 | CC1CC(C(O)C(C)(C)O)OC2C1C1(C)CCC34CC35CCC(OC3CN(C(=O)CC6CCCCC6)CCO3)C(C)(C)C5CCC4C1(C)C2O (stereo not drawn) | ≤ 1
62 | CC1CC(C(O)C(C)(C)O)OC2C1C1(C)CCC34CC35CCC(OC3CN(C(=O)C6CCC6)CCO3)C(C)(C)C5CCC4C1(C)C2O (stereo not drawn) | < 10
63 | CC1CC(CCC(=O)O)OC2C1C1(C)CCC34CC35CCC(OC3CN(C(=O)CC6CC6)CCO3)C(C)(C)C5CCC4C1(C)C2O (stereo not drawn) | 1 to 10
